According to patent US8293764B2, “Compositions and methods for disruption of BRCA2-Rad51 interaction” (The Regents of the University of California, priority 2004, dated 2012):
“Also recorded” adds a separate entry of the source.

What was measured:
Rad51 multimers = biological target: T1, Rad51 multimers (Homo sapiens, UniProt Q06609); assay: Gel filtration of Rad51 multimers; format: biochemical; settings: Rad51:compound molar ratio 1:10
T1 sequence (Q06609 1-339): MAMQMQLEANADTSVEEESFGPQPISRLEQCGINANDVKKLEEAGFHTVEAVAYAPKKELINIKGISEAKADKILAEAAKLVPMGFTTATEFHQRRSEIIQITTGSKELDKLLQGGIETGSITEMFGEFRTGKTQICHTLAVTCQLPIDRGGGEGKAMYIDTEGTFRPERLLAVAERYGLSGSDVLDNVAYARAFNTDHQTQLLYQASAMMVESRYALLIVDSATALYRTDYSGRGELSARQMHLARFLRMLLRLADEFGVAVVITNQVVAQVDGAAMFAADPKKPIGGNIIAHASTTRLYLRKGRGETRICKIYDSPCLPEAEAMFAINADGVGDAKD
Excerpt: If the IBR compound indeed occupies the hydrophobic pocket for the entrance of Phe1524 in BRCA2, the oligomerization of Rad51 should also be affected since they share the same binding region. […] Therefore, if IBR2 mimics the BRC hairpin structure, the Rad51 multimerization will also be inhibited by IBR2. We compared the gel filtration profile of Rad51 between with and without IBR2. […] The inhibition of the Rad51 and BRC repeat binding was further analyzed by SPR technology in a solution competition format as previously described (see e.g., Science 303, 844-848).
Gel filtration: A mixture of Rad51 (3.2 μg) and small compound (molar ratio 1:10) was incubated for 15 minutes at 37° C., supplemented with buffer (50 mM triethanolamine-HCl [pH 7.5], 0.5 mM Mg (OAc)2, 1 mM dithiothreitol, 2 mM ATP, and 100 μg/ml BSA, total volume 20 μl) and incubated 15 more minutes. Then the mixture was loaded onto 2.4 ml Superdex 200 PC 3.2/30 columns (Pharmacia) equilibrated with the same buffer as described (Davies et al., 2001). Fractions (50 μl) were collected and 0.5 μl of each fraction was blotted onto PVDF membrane. Rad51 was detected using anti-Rad51 antibody (mAb 14B4).

[1] = system: breast cancer cell lines (MDA-MB-231, MCF-7, MDA-MB-468, SKBR3 and MDA-MB-435); assay: Cell growth curves, trypan blue exclusion assay; format: cell-based; settings: 0, 5, 10, 20 μM; 1-5 days
Procedure: (§1) The inventors examined the effects of IBR2 on the growth and viability of a panel of breast cancer cell lines. Five exponentially growing breast cancer cell lines (MDA-MB-231, MCF-7, MDA-MB-468, SKBR3 and MDA-MB-435) were incubated with IBR2 at various concentrations (0, 5, 10 and 20 μM) for various periods of time (1, 2, 3, 4 and 5 days). The viable cell numbers were then counted by trypan blue exclusion assay. […] We also examined the effects of IBR2 on the growth and viability of cultured breast cancer cells (MDA-MB-468, MDA-MB-435, MCF-7, T47D) using the 3-(4,5-dimethylthiazol-2-yl)-2,5-diphenyltetrazolium bromide (MTT) assay.
(§2) Cell proliferation assay and clonogenic survival assays: To obtain cell growth curves, 1×10^4 cells were seeded in 12-well plate for 24 hours. Cells were then treated, in duplicate, with various concentrations of IBR2 in the presence of 0.4% DMSO. The viable cells were counted by trypan blue exclusion assay daily. MTT assay was performed as previously described (Alley et al., 1988).

[2] = system: breast cancer cells (MDA-MB-468, MDA-MB-435, MCF-7, T47D); assay: MTT assay; format: cell-based
Procedure: as §1, §2

[3] = system: non-small-cell lung carcinoma (CALU-1, A427, Sklu-1, CALU-6), osteosarcoma (SaoS2, U2OS) and glioblastoma (T98G) cell lines; assay: Proliferation of other cancer cell lines; format: cell-based; settings: CALU-1, A427, Sklu-1, CALU-6, SaoS2, U2OS
MCF-7 cells = assay: Fate of S phase cells after hydroxyurea synchronization (BrdU uptake, mitotic index, viable cells); format: cell-based
Procedure: To further examine the fate of cells in S phase upon IBR2 treatment, MCF-7 cells were synchronized at G1/S transition by hydroxyurea treatment and then released to allow S phase entry by washing out the reagents. These cells were treated with 20 μM IBR2 and BrdU, and BrdU uptake was measured for DNA synthesis, as well as the mitotic index and the number of viable cells during an 18-hour period. […] Moreover, the number of mock treated cells doubled at the completion of M phase, while the number of IBR2 treated cells decreased to around 50%.
Cell culture, cell synchronization, BrdU labeling and determination of mitotic index: Breast cancer cell lines and MEF cell lines were cultured in high-glucose Dulbecco modified Eagle medium containing 10% fetal bovine serum. MCF-10A cells were cultured as described previously (Debnath et al., 2003). Cell synchronization at M phase was achieved by treatment with 0.1 μg/ml nocodazole for 8 hours. Cell synchronization at G1/S boundary was achieved by treatment with 1 mM hydroxyurea for 17 hours, 9 hours of release and again with 1 mM hydroxyurea for 14 hours. For BrdU labeling, cells were incubated with BrdU for 30 minutes and fixed for BrdU immunostaining using a BrdU labeling kit (Amersham Biosciences). For determination of mitotic index, cells were fixed in 4% formaldehyde in PBS containing 0.1 μg/ml DAPI for 30 minutes at room temperature and examined by fluorescence microscopy. 500-1000 nuclei per sample were counted to determine the number of M phase cells which only includes prometaphase, metaphase, anaphase and telophase.

[4] = system: MCF-7 breast cancer cells; assay: Survival of cells under combination with chemotherapeutic agents or irradiation; format: cell-based
Procedure: It is therefore likely that combination of IBR2 with other chemotherapeutic agents may have synergistic effects. To test this possibility, survival of MCF-7 breast cancer cells treated with 8 μM IBR2 plus different doses of VP-16, taxol, camptothecin, or gamma-irradiation was measured. […] Thus, it should be appreciated that a combination of IBR2 with other conventional therapeutic agents may have potential clinical applications in treating various cancers.
To perform clonogenic survival assay, 1.5×10^3 MCF-7 cells were seeded in 10-cm dishes for 24 hours. Cells were then treated, in triplicate, with 5 μM IBR2 for 12 hours and then g-irradiated. Cells were continuously exposed to 5 μM IBR2 and re-fed every 4 days with fresh medium and IBR2. After 14-16 days, cells were fixed and stained with 2% methylene blue. Colonies consisting of more than 50 cells were counted.

With O=S(=O)(Cc1ccccc1)N1C=Cc2ccccc2C1c1c[nH]c2ccccc12 (centres unmarked) [IBR2, 2-(benzylsulfonyl)-1-(1H-indol-3-yl)-1,2-dihydroisoquinoline] the “Rad51 multimerization (gel filtration elution profile)” value (Rad51 multimers) was “dissociates Rad51 multimers”, the “growth of breast cancer cell lines (viable cell numbers)” value [1] was “retarded growth of breast tumor cells in culture; also recorded: significantly inhibited the growth” and the IC50 [2] was about 10 µM. The proliferation [3] was “significantly inhibited”, the “DNA synthesis (BrdU uptake), S phase progression” value (MCF-7 cells; 20 μM IBR2, 18-hour period) was “does not interfere with S phase progression” and the “mitotic index (M phase entry)” value (MCF-7 cells; 20 μM IBR2, 18-hour period) was “no or little IBR2 treated cells entered M phase”. The viability at 20 µM (MCF-7 cells; Homo sapiens, MCF7, 20 μM IBR2, at completion of M phase, read-out: number of viable cells) was about 50%, the “synergy with VP-16 on cell survival” value ([4]; 8 μM IBR2 plus different doses of VP-16) was “Significant synergistic effects” and the “synergy with camptothecin on cell survival” value ([4]; 8 μM IBR2 plus different doses of camptothecin) was “Significant synergistic effects”. For the same molecule, the “synergy with gamma-irradiation on clonogenic survival” value ([4]; 8 μM IBR2 plus different doses of gamma-irradiation) was “Significant synergistic effects” and the “synergy with taxol on cell survival” value ([4]; 8 μM IBR2 plus different doses of taxol) was “Significant synergistic effects”.
